{"source": "paper PMC5843756", "about": "“The drug interaction potential of daprodustat when coadministered with pioglitazone, rosuvastatin, or trimethoprim in healthy subjects” (Pharmacology Research & Perspectives, 2018)", "key": {"clinical": {"experiment": "clinical", "details": "both, human, in vivo; for half-life: median elimination half-life, alone", "protocol": "• Part A was an open‐label, randomized, single oral dose, two‐way cross‐over design that assessed the effects of a single, oral dose of 100 mg daprodustat on the pharmacokinetics of a single, oral dose of 15 mg pioglitazone and a single, oral dose of 10 mg rosuvastatin administered as a cocktail in healthy male and female subjects; • Part B was an open‐label, single sequence, two‐way cross‐over design to assess the effect of steady‐state trimethoprim (200 mg administered orally twice daily for 3 days) on the pharmacokinetics of a single, oral dose of 25 mg daprodustat in healthy, adult male and female subjects.\nFor Part A, for each of the two treatment periods, subjects remained in the Unit until 48 h postdosing, and were discharged following the last postdose assessment, if no clinically significant abnormalities were noted. Treatment periods were separated by at least a 7‐day washout. […]\nPlasma analysis was performed under the management of Bioanalytical Science and Toxicokinetics, Drug Metabolism and Pharmacokinetics (DMPK), and GlaxoSmithKline (GSK). […] Samples were shipped frozen to PPD (Middleton, WI) where plasma samples were analyzed for rosuvastatin, pioglitazone, or daprodustat and predominant metabolites (GSK2391220 (M2), GSK2531403 (M3), GSK2487818 (M4), GSK2506102 (M5), GSK2531398 (M6), and GSK2531401 (M13)).\nPharmacokinetic analysis was performed using Phoenix WinNonLin® 6.3 (A Certara Company, Princeton, N.J). Pharmacokinetic parameters were determined from concentration–time data for pioglitazone, rosuvastatin, daprodustat, and predominant metabolites of daprodustat using standard noncompartmental methods.\nFollowing loge transformation, AUC0‐∞ [defaulting to AUC0‐t if AUC0‐∞ could not be consistently determined] and C max of pioglitazone and rosuvastatin (for Part A) or daprodustat and six predominant metabolites (for Part B) were separately analyzed using a mixed‐effects model with fixed‐effect terms for treatment and period, and subject as a random effect in the model. […]"}, "[1]": {"experiment": "Part B clinical DDI: plasma pharmacokinetics of daprodustat and predominant metabolites with or without steady-state trimethoprim", "assay_type": "in vivo, human", "details": "for AUC(0-t) / AUC(0-inf) / Cmax: geometric LS mean (%CV)", "protocol": "For Part B, all subjects were administered daprodustat on Day 1 with pharmacokinetic blood sampling over the next 48 h. Starting the morning of Day 3, all subjects were administered 200‐mg trimethoprim twice‐daily for 3 days (i.e., through Day 5). On Day 6 subjects were administered concomitantly daprodustat with 200 mg trimethoprim in the morning, with pharmacokinetic blood sampling occurring over the next 48 h. Trimethoprim continued to be administered at 12 h postdosing on Day 6, and twice daily on Day 7.\nBlood samples for PK analyses were collected on Day 1 and Day 6 predose and at 0.25, 0.5, 1, 2, 3, 4, 5, 6, 8, 12, 18, 24, and 48 h postdose.\nNo formal hypothesis was tested in this study."}, "[2]": {"experiment": "Tolerability (adverse events), Parts A and B", "assay_type": "in vivo, human", "from_the_text": "Tolerability measures included adverse events (AEs), serious adverse events (SAEs), clinical laboratory findings, vital signs, and concurrent medication assessments. An AE was defined as any untoward medical occurrence in a subject or clinical investigation subject, temporally associated with the use of an investigational product, whether or not considered related to the investigational product. […] The investigator or site staff was responsible for detecting, documenting, and reporting events that met the definition of an AE or SAE."}, "other CYPs": {"test_system": "other CYPs", "details": "human liver microsomes, up to 100 μmol/L; earlier in vitro studies, no reference given; cited from earlier work"}, "hemoglobin levels": {"test_system": "hemoglobin levels", "design": "method as in Holdstock et al. 2016a", "details": "ref Holdstock et al. 2016a, cited from earlier work"}, "CYP2C8": {"test_system": "CYP2C8", "details": "read-out: IC50 for inhibition of CYP2C8; human liver microsomes; earlier in vitro studies, no reference given; cited from earlier work"}, "OATP1B1": {"test_system": "OATP1B1", "details": "read-out: IC50 for inhibition of OATP1B1-mediated transport; in vitro transporter assays; earlier studies, no reference given; cited from earlier work"}, "[3]": {"details": "coadministration of gemfibrozil, strong CYP2C8 inhibitor; ref Johnson et al. 2013; cited from earlier work"}, "[4]": {"design": "method as in Deng et al. 2005", "details": "pioglitazone with gemfibrozil, strong CYP2C8 inhibitor; ref Deng et al. 2005; cited from earlier work"}, "[5]": {"details": "25 mg daprodustat + trimethoprim vs daprodustat alone"}, "[6]": {"details": "test:reference (with vs without trimethoprim)"}, "[7]": {"details": "Part B, Regimen C (n = 20) 25 mg daprodustat, Regimen D (n = 19) 25 mg daprodustat + 200 mg trimethoprim BID for 5 days"}}, "note": "Values joined by “and” are separate entries in the source; they are usually repeats but may differ in a detail not shown here. Equal values may be shown once. Read-outs that look alike come from different tables or passages of the source.", "data": [{"smiles": "CC(C)c1nc(N(C)S(C)(=O)=O)nc(-c2ccc(F)cc2)c1/C=C/[C@@H](O)C[C@@H](O)CC(=O)O", "note": "[rosuvastatin]", "values": [{"measurement": "half-life", "setting": "clinical", "result": 15.6, "unit": "h"}]}, {"smiles": "O=C(O)CNC(=O)C1C(=O)N(C2CCCCC2)C(=O)N(C2CCCCC2)C1=O", "note": "[daprodustat]", "values": [{"measurement": "Cmax", "setting": "clinical; 100 mg", "result": "~4.5", "unit": "µM"}, {"measurement": "fold increase in AUC with trimethoprim coadministration", "setting": "[1]; [5]", "result": 1.48, "unit": "fold"}, {"measurement": "fold increase in Cmax with trimethoprim coadministration", "setting": "[1]; [5]", "result": 1.28, "unit": "fold"}, {"measurement": "increase in plasma AUC with trimethoprim coadministration", "setting": "[1]; [5]", "result": 48, "unit": "%"}, {"measurement": "increase in plasma Cmax with trimethoprim coadministration", "setting": "[1]; [5]", "result": 28, "unit": "%"}, {"measurement": "AUC(0-t)", "setting": "[1]; both sexes, human, oral, reference: 25 mg daprodustat alone, plasma, read-out: AUC0-t, Reference", "result": 936, "unit": "ng·h/mL"}, {"measurement": "AUC(0-inf)", "setting": "[1]; both sexes, human, oral, reference: 25 mg daprodustat alone, plasma, read-out: AUC0-∞, Reference", "result": 937, "unit": "ng·h/mL"}, {"measurement": "Cmax", "setting": "[1]; both sexes, human, oral, reference: 25 mg daprodustat alone, plasma, read-out: Cmax, Reference", "result": 442, "unit": "ng/mL"}, {"measurement": "AUC(0-t)", "setting": "[1]; both sexes, human, oral, test: two 100 mg trimethoprim tablets (steady state) + 25 mg daprodustat, plasma, read-out: AUC0-t, Test", "result": 1370, "unit": "ng·h/mL"}, {"measurement": "AUC(0-inf)", "setting": "[1]; both sexes, human, oral, test: two 100 mg trimethoprim tablets (steady state) + 25 mg daprodustat, plasma, read-out: AUC0-∞, Test", "result": 1370, "unit": "ng·h/mL"}, {"measurement": "Cmax", "setting": "[1]; both sexes, human, oral, test: two 100 mg trimethoprim tablets (steady state) + 25 mg daprodustat, plasma, read-out: Cmax, Test", "result": 560, "unit": "ng/mL"}, {"measurement": "half-life", "setting": "[1]; both sexes, human, plasma, oral, 25 mg daprodustat alone, read-out: median elimination half-life, alone (converted)", "result": 3.06, "unit": "h"}, {"measurement": "time of observed peak plasma levels", "setting": "[1]; both treatment periods (with and without steady-state trimethoprim)", "result": 1, "unit": "h"}, {"measurement": "AUC0-t, Geometric LS mean ratio (90% CI)", "setting": "[1]; [6]", "result": "1.48 (1.39, 1.59)"}, {"measurement": "AUC0-∞, Geometric LS mean ratio (90% CI)", "setting": "[1]; [6]", "result": "1.48 (1.39, 1.59)"}, {"measurement": "Cmax, Geometric LS mean ratio (90% CI)", "setting": "[1]; [6]", "result": "1.28 (1.09, 1.51)"}, {"measurement": "Aphthous stomatitis", "setting": "[2]; [7]", "result": "0 n (%)"}, {"measurement": "Catheter site phlebitis", "setting": "[2]; [7]", "result": "0 n (%)"}, {"measurement": "Constipation", "setting": "[2]; [7]", "result": "1 (5) n (%)"}, {"measurement": "Diarrhea", "setting": "[2]; [7]", "result": "2 (10%) n (%) and 2 (10) n (%)"}, {"measurement": "Nausea", "setting": "[2]; [7]", "result": "0 n (%)"}, {"measurement": "Rhinitis", "setting": "[2]; [7]", "result": "0 n (%)"}, {"measurement": "Tongue coated", "setting": "[2]; [7]", "result": "0 n (%)"}, {"measurement": "Vomiting", "setting": "[2]; [7]", "result": "1 (5) n (%)"}, {"measurement": "Vulvovaginal mycotic infection", "setting": "[2]; [7]", "result": "0 n (%)"}, {"measurement": "proportion of subjects reporting AEs", "setting": "[2]; per regimen, Parts A and B, healthy subjects", "result": 10, "unit": "%"}, {"measurement": "inhibition of other CYPs", "setting": "other CYPs", "result": "no inhibition was observed"}, {"measurement": "mean hemoglobin levels", "setting": "hemoglobin levels; HDD subjects switched from ESA treatment, 5 mg once daily, 4-week treatment period", "result": "maintained mean hemoglobin levels"}, {"measurement": "mean increase in hemoglobin", "setting": "hemoglobin levels; NDD patients naïve to ESA treatment, oral 5 mg once daily, over 4 weeks", "result": 1, "unit": "gm/dL"}, {"measurement": "IC50", "setting": "CYP2C8", "result": 21, "unit": "µM"}, {"measurement": "IC50", "setting": "OATP1B1", "result": 6, "unit": "µM"}, {"measurement": "fold increase in daprodustat AUC with gemfibrozil", "setting": "[3]", "result": 19, "unit": "fold"}, {"measurement": "fold increase in daprodustat Cmax with gemfibrozil", "setting": "[3]", "result": 4, "unit": "fold"}]}, {"smiles": "CCc1ccc(CCOc2ccc(CC3SC(=O)NC3=O)cc2)nc1", "note": "(stereo not drawn) [pioglitazone]", "values": [{"measurement": "half-life", "setting": "clinical", "result": 7.01, "unit": "h"}, {"measurement": "fold increase in AUC0-∞ with gemfibrozil", "setting": "[4]", "result": 3.4, "unit": "fold"}]}]}
